Assay results from ChEMBL document CHEMBL1134299, “Conformationally constrained analogues of diacylglycerol. 18. The incorporation of a hydroxamate moiety into diacylglycerol-lactones reduces lipophilicity and helps discriminate between sn-1 and sn-2 binding modes to protein kinase C (PK-C). Implications for isozyme specificity” (J Med Chem, 2001).

What was measured:
[1] = biological target: Protein kinase C alpha type (Homo sapiens, UniProt P17252); experiment: Displacement of [20-3H]-PDBU ligand from recombinant protein kinase C (baculovirus)
[2] = Partition coefficient (logP); assay type: physicochemical; details: octanol/water

Row | Structure (SMILES) | Ki [1] [nM] | logP [2]
1 | CC(C)CC(C/C=C1\CC(CO)(CN(O)C(=O)C(C)(C)C)OC1=O)CC(C)C (stereo not given) | 4.81 | 3.58
2 | CC(C)C(C/C=C1\CC(CO)(COC(=O)C(C)(C)C)OC1=O)C(C)C (stereo not given) | 11.2 | –
3 | CC(C)CC(C/C=C1/CC(CO)(CNC(=O)C(C)(C)C)OC1=O)CC(C)C (stereo not given) | 430 | 3.95
4 | CC(C)C(C/C=C1\CC(CO)(COC(=O)CC(C(C)C)C(C)C)OC1=O)C(C)C (stereo not given) | – | 5.89
5 | CC(C)CC(C/C=C1\CC(CO)(COC(=O)C(C)(C)C)OC1=O)CC(C)C (stereo not given) | 4.51 | 5.03
6 | CC(C)CC(C/C=C1\CC(CO)(COC(=O)C(C)(C)C)NC1=O)CC(C)C (stereo not given) | 4840 | 5.01
7 | CC(C)CC(C/C=C1/CC(CO)(COC(=O)CC(C(C)C)C(C)C)OC1=O)CC(C)C (stereo not given) | 6.87 | 6.88
8 | CC(C)C(C/C=C1/CC(CO)(COC(=O)C(C)(C)C)OC1=O)C(C)C (stereo not given) | 8.32 | –
9 | CC(C)CC(C/C=C1\CC(CO)(COC(=O)CC(C(C)C)C(C)C)OC1=O)CC(C)C (stereo not given) | 4.46 | 6.88
10 | CC(C)CC(C/C=C1\CC(CO)(COC(=O)C(C)(C)C)N(O)C1=O)CC(C)C (stereo not given) | 10400 | –
11 | CC(C)C(C/C=C1/CC(CO)(COC(=O)CC(C(C)C)C(C)C)OC1=O)C(C)C (stereo not given) | – | 5.89
12 | CC(C)CC(C/C=C1/CC(CO)(COC(=O)C(C)(C)C)NC1=O)CC(C)C (stereo not given) | 4330 | 5.01
13 | CC(C)CC(C/C=C1\CC(CO)(CNC(=O)C(C)(C)C)OC1=O)CC(C)C (stereo not given) | 1260 | 3.95
14 | CC(C)CC(C/C=C1/CC(CO)(CN(O)C(=O)C(C)(C)C)OC1=O)CC(C)C (stereo not given) | 5.42 | 3.58
15 | CC(C)CC(C/C=C1/CC(CO)(COC(=O)C(C)(C)C)OC1=O)CC(C)C (stereo not given) | 2.9 | 5.03
